US20260284010A1, “SOLID DISPERSION OF P2X4 INHIBITOR, AND PREPARATION METHOD THEREFOR AND USE THEREOF” (priority 2023, published 2026)
Values after ≈ are worked out from the molar mass of the structure shown. Where two headings read alike, the source gives them in different places.

Legend:
[1] = Solubilization test of compound 1 with surfactants in FaSSIF; assay type: physicochemical; settings: for solubility at 0.5 h / solubility at 1 h / solubility at 2 h / solubility at 4 h: 37° C., read-out: Concentration of API in vehicle
Experimental: 50 mg of compound 1 was weighed into 5 mL of FaSSIF medium containing 5 mg of different surfactants (target concentration of API (compound 1):10 mg/mL). The mixture was shaken at 500 rpm and 37° C. 0.5 mL each of the suspension samples was taken at 0.5 hours, 1 hour, 2 hours, and 4 hours, respectively, centrifuged at 14,000 rpm for 5 minutes, and the supernatant was diluted and analyzed by HPLC.

[2] = Dynamic solubility test (two-step dissolution, SGF then FaSSIF) of solid dispersions; assay type: physicochemical; settings: 37° C.
Experimental: 20 mg each of the solid dispersion products from formulations 1 to 9 in Example 4 was taken and added with 3 mL of SGF (target concentration of API: […]). The mixture was stirred at 37° C. and 500 rpm for 0.25 hours and 0.5 hours, respectively, followed by sampling. 3 mL of 2× FaSSIF was then added to adjust the solution pH to approximately 6.5. The mixture was stirred for another 0.25 hours, 0.5 hours, 1 hour, and 1.5 hours, respectively, followed by sampling. The collected samples were analyzed by UPLC, and the final solution pH was measured.

[3] = FaSSIF (pH 6.5) with 5 mg Cremophor EL, 50 mg API in 5 mL
[4] = FaSSIF (pH 6.5) with 5 mg Cremophor RH40, 50 mg API in 5 mL
[5] = FaSSIF (pH 6.5) with 5 mg SLS, 50 mg API in 5 mL
[6] = FaSSIF (pH 6.5) with 5 mg Solutol HS15, 50 mg API in 5 mL
[7] = FaSSIF (pH 6.5) with 5 mg VE-TPGS, 50 mg API in 5 mL
[8] = FaSSIF (pH 6.5), no surfactant, 50 mg API in 5 mL
[9] = fassif with poloxamer 188, FaSSIF (pH 6.5) with 5 mg Poloxamer 188, 50 mg API in 5 mL
[10] = fassif with poloxamer 407, FaSSIF (pH 6.5) with 5 mg Poloxamer 407, 50 mg API in 5 mL
[11] = fassif with tween 80, FaSSIF (pH 6.5) with 5 mg Tween 80, 50 mg API in 5 mL

NS(=O)(=O)c1cc(NC(=O)Cc2ccccc2Cl)cc2nn(C(F)F)cc12 [compound 1]
solubility at 0.5 h [1, 3]: 1570 µg/mL (≈ 3800 µM) | solubility at 1 h [1, 3]: 1600 µg/mL (≈ 3870 µM) | solubility at 2 h [1, 3]: 1540 µg/mL (≈ 3710 µM) | solubility at 4 h [1, 3]: 1510 µg/mL (≈ 3640 µM) | solubility at 0.5 h [1, 4]: 1580 µg/mL (≈ 3820 µM) | solubility at 1 h [1, 4]: 1600 µg/mL (≈ 3870 µM) | solubility at 2 h [1, 4]: 1570 µg/mL (≈ 3780 µM) | solubility at 4 h [1, 4]: 1540 µg/mL (≈ 3710 µM) | solubility at 0.5 h [1, 5]: 614 µg/mL (≈ 1480 µM) | solubility at 1 h [1, 5]: 622 µg/mL (≈ 1500 µM) | solubility at 2 h [1, 5]: 639 µg/mL (≈ 1540 µM) | solubility at 4 h [1, 5]: 652 µg/mL (≈ 1570 µM) | solubility at 0.5 h [1, 6]: 1470 µg/mL (≈ 3530 µM) | solubility at 1 h [1, 6]: 1500 µg/mL (≈ 3620 µM) | solubility at 2 h [1, 6]: 1480 µg/mL (≈ 3570 µM) | solubility at 4 h [1, 6]: 1460 µg/mL (≈ 3510 µM) | solubility at 0.5 h [1, 7]: 2110 µg/mL (≈ 5100 µM) | solubility at 1 h [1, 7]: 2120 µg/mL (≈ 5120 µM) | solubility at 2 h [1, 7]: 2090 µg/mL (≈ 5040 µM) | solubility at 4 h [1, 7]: 2080 µg/mL (≈ 5010 µM) | solubility at 0.5 h [1, 8]: 33.9 µg/mL (≈ 81.7 µM) | solubility at 1 h [1, 8]: 22.9 µg/mL (≈ 55.2 µM) | solubility at 2 h [1, 8]: 15.2 µg/mL (≈ 36.6 µM) | solubility at 4 h [1, 8]: 14.9 µg/mL (≈ 35.9 µM) | Solubility of compound 1 with surfactants ([1]; FaSSIF with SLS, Cremophor EL, Cremophor RH40, VE-TPGS, Tween 80, Poloxamer 407, or Solutol HS15, in words): significantly improved | solubility at 0.5 h [1, 9]: 116 µg/mL (≈ 279 µM) | solubility at 1 h [1, 9]: 123 µg/mL (≈ 297 µM) | solubility at 2 h [1, 9]: 104 µg/mL (≈ 251 µM) | solubility at 4 h [1, 9]: 93.9 µg/mL (≈ 226 µM) | solubility at 0.5 h [1, 10]: 838 µg/mL (≈ 2020 µM) | solubility at 1 h [1, 10]: 861 µg/mL (≈ 2070 µM) | solubility at 2 h [1, 10]: 842 µg/mL (≈ 2030 µM) | solubility at 4 h [1, 10]: 797 µg/mL (≈ 1920 µM) | solubility at 0.5 h [1, 11]: 899 µg/mL (≈ 2170 µM) | solubility at 1 h [1, 11]: 893 µg/mL (≈ 2150 µM) | solubility at 2 h [1, 11]: 888 µg/mL (≈ 2140 µM) | solubility at 4 h [1, 11]: 887 µg/mL (≈ 2140 µM) | Solubility of API in vehicle ([2]; Step 1 (SGF, pH 1.6), 0.25 h, target API 2 mg/mL): 33.7 µg/mL | Solubility of API in vehicle ([2]; Step 1 (SGF, pH 1.6), 0.5 h, target API 2 mg/mL): 65.1 µg/mL | Solubility of API in vehicle ([2]; Step 2 (FaSSIF, pH 6.5), 0.75 h): 13.7 µg/mL | Solubility of API in vehicle ([2]; Step 2 (FaSSIF, pH 6.5), 1.0 h): 33.5 µg/mL | Solubility of API in vehicle ([2]; Step 2 (FaSSIF, pH 6.5), 2.0 h): 18.0 µg/mL | Solubility of API in vehicle ([2]; Step 2 (FaSSIF, pH 6.5), […]): 15.0 µg/mL
